Test results: PubChem BioAssay (NCI)
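The concentration for 50% growth inhibition is given as GI50. At the TGI there is no net growth.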

Experiments:
Experiment in all cases: NCI anticancer screen, dose series, 384-well format
SR leukemia = tested on: SR leukemia
DU-145 prostate = tested on: DU-145 prostate
RXF 393 renal = tested on: RXF 393 renal
HCC-2998 colon = tested on: HCC-2998 colon
HOP-92 NSCLC = tested on: HOP-92 NSCLC
OVCAR-4 ovarian = tested on: OVCAR-4 ovarian
OVCAR-8 ovarian = tested on: OVCAR-8 ovarian
A549 NSCLC = tested on: A549 NSCLC
UACC-62 melanoma = tested on: UACC-62 melanoma
NCI-H522 lung = tested on: NCI-H522 lung
SN12C renal = tested on: SN12C renal
UACC-257 melanoma = tested on: UACC-257 melanoma
SF-295 CNS = tested on: SF-295 CNS
SNB-19 CNS = tested on: SNB-19 CNS
786-0 renal = tested on: 786-0 renal
NCI-H460 NSCLC = tested on: NCI-H460 NSCLC
SF-539 CNS = tested on: SF-539 CNS
COLO 205 colon = tested on: COLO 205 colon
SF-268 CNS = tested on: SF-268 CNS
SK-MEL-28 melanoma = tested on: SK-MEL-28 melanoma
U251 glioblastoma = tested on: U251 glioblastoma
HOP-62 NSCLC = tested on: HOP-62 NSCLC
HCT-15 colon = tested on: HCT-15 colon
SW-620 colon = tested on: SW-620 colon
MOLT-4 leukemia = tested on: MOLT-4 leukemia
OVCAR-5 ovarian = tested on: OVCAR-5 ovarian
MDA-MB-435 melanoma = tested on: MDA-MB-435 melanoma
MDA-MB-231 breast = tested on: MDA-MB-231 breast
UO-31 renal = tested on: UO-31 renal
MALME-3M melanoma = tested on: MALME-3M melanoma
IGROV1 ovarian = tested on: IGROV1 ovarian
NCI-H226 lung = tested on: NCI-H226 lung
OVCAR-3 ovarian = tested on: OVCAR-3 ovarian
ACHN renal = tested on: ACHN renal
T-47D breast = tested on: T-47D breast
MCF7 breast = tested on: MCF7 breast
PC-3 prostate = tested on: PC-3 prostate
HCT-116 colon = tested on: HCT-116 colon
LOX IMVI melanoma = tested on: LOX IMVI melanoma
NCI-H23 lung = tested on: NCI-H23 lung
CAKI-1 renal = tested on: CAKI-1 renal
A498 renal = tested on: A498 renal
SK-MEL-2 melanoma = tested on: SK-MEL-2 melanoma
HL-60(TB) leukemia = tested on: HL-60(TB) leukemia
SK-OV-3 ovarian = tested on: SK-OV-3 ovarian
KM12 colon = tested on: KM12 colon
NCI/ADR-RES ovarian = tested on: NCI/ADR-RES ovarian
MDA-MB-468 breast = tested on: MDA-MB-468 breast
M14 melanoma = tested on: M14 melanoma
SK-MEL-5 melanoma = tested on: SK-MEL-5 melanoma
NCI-H322M lung = tested on: NCI-H322M lung
HT29 colon = tested on: HT29 colon
CCRF-CEM leukemia = tested on: CCRF-CEM leukemia
BT-549 breast = tested on: BT-549 breast
K-562 leukemia = tested on: K-562 leukemia
TK-10 renal = tested on: TK-10 renal
RPMI-8226 leukemia = tested on: RPMI-8226 leukemia

C[C@H](c1ccc(Cl)cc1N)N1C(=O)c2cc(I)ccc2N(CCCN2CCN(C)CC2)C(=O)[C@@H]1c1ccc(Cl)cc1
GI50 (SR leukemia): 0.144 µM | TGI (SR leukemia): 0.28 µM | GI50 (DU-145 prostate): 1.76 µM | TGI (DU-145 prostate): 3.16 µM | GI50 (RXF 393 renal): 0.848 µM | TGI (RXF 393 renal): 2.12 µM | GI50 (HCC-2998 colon): 1.25 µM | TGI (HCC-2998 colon): 2.5 µM | GI50 (HOP-92 NSCLC): 1.13 µM | TGI (HOP-92 NSCLC): 2.34 µM | GI50 (OVCAR-4 ovarian): 1.56 µM | TGI (OVCAR-4 ovarian): 2.9 µM | GI50 (OVCAR-8 ovarian): 1.73 µM | TGI (OVCAR-8 ovarian): 3.12 µM | GI50 (A549 NSCLC): 1.06 µM | TGI (A549 NSCLC): 2.26 µM | GI50 (UACC-62 melanoma): 0.591 µM | TGI (UACC-62 melanoma): 1.95 µM | GI50 (NCI-H522 lung): 1.54 µM | TGI (NCI-H522 lung): 2.88 µM | GI50 (SN12C renal): 1.59 µM | TGI (SN12C renal): 2.94 µM | GI50 (UACC-257 melanoma): 1.22 µM | TGI (UACC-257 melanoma): 2.47 µM | GI50 (SF-295 CNS): 1.7 µM | TGI (SF-295 CNS): 3.08 µM | GI50 (SNB-19 CNS): 1.71 µM | TGI (SNB-19 CNS): 3.09 µM | GI50 ([…]-0 renal): 1.6 µM | TGI (786-0 renal): 2.96 µM | GI50 (NCI-H460 NSCLC): 0.67 µM | TGI (NCI-H460 NSCLC): 2 µM | GI50 (SF-539 CNS): 1.64 µM | TGI (SF-539 CNS): 3.01 µM | GI50 (COLO 205 colon): 1.64 µM | TGI (COLO 205 colon): 3.02 µM | GI50 (SF-268 CNS): 1.77 µM | TGI (SF-268 CNS): 3.16 µM | GI50 (SK-MEL-28 melanoma): 1.59 µM | TGI (SK-MEL-28 melanoma): 2.95 µM | GI50 (U251 glioblastoma): 1.64 µM | TGI (U251 glioblastoma): 3.02 µM | GI50 (HOP-62 NSCLC): 1.62 µM | TGI (HOP-62 NSCLC): 2.98 µM | GI50 (HCT-15 colon): 1.68 µM | TGI (HCT-15 colon): 3.06 µM | GI50 (SW-620 colon): 1.78 µM | TGI (SW-620 colon): 3.19 µM | GI50 (MOLT-4 leukemia): 0.144 µM | TGI (MOLT-4 leukemia): 0.279 µM | GI50 (OVCAR-5 ovarian): 1.77 µM | TGI (OVCAR-5 ovarian): 3.16 µM | GI50 (MDA-MB-435 melanoma): 1.71 µM | TGI (MDA-MB-435 melanoma): 3.08 µM | GI50 (MDA-MB-231 breast): 1.61 µM | TGI (MDA-MB-231 breast): 2.96 µM | GI50 (UO-31 renal): 1.15 µM | TGI (UO-31 renal): 2.37 µM | GI50 (MALME-3M melanoma): 1.06 µM | TGI (MALME-3M melanoma): 2.25 µM | GI50 (IGROV1 ovarian): 1.21 µM | TGI (IGROV1 ovarian): 2.47 µM | GI50 (NCI-H226 lung): 0.649 µM | TGI (NCI-H226 lung): 1.98 µM | GI50 (OVCAR-3 ovarian): 1.45 µM | TGI (OVCAR-3 ovarian): 2.78 µM | GI50 (ACHN renal): 0.965 µM | TGI (ACHN renal): 2.16 µM | GI50 (T-47D breast): 1.46 µM | TGI (T-47D breast): 2.78 µM | GI50 (MCF7 breast): 1.06 µM | TGI (MCF7 breast): 2.26 µM | GI50 (PC-3 prostate): 1.66 µM | TGI (PC-3 prostate): 3.04 µM | GI50 (HCT-116 colon): 0.613 µM | TGI (HCT-116 colon): 1.95 µM | GI50 (LOX IMVI melanoma): 1.7 µM | TGI (LOX IMVI melanoma): 3.09 µM | GI50 (NCI-H23 lung): 1.57 µM | TGI (NCI-H23 lung): 2.92 µM | GI50 (CAKI-1 renal): 0.482 µM | TGI (CAKI-1 renal): 1.78 µM | GI50 (A498 renal): 0.779 µM | TGI (A498 renal): 2.04 µM | GI50 (SK-MEL-2 melanoma): 1.59 µM | TGI (SK-MEL-2 melanoma): 2.94 µM | GI50 (HL-60(TB) leukemia): 0.255 µM | TGI (HL-60(TB) leukemia): 0.641 µM | GI50 (SK-OV-3 ovarian): 1.52 µM | TGI (SK-OV-3 ovarian): 2.85 µM | GI50 (KM12 colon): 1.56 µM | TGI (KM12 colon): 2.92 µM | GI50 (NCI/ADR-RES ovarian): 1.59 µM | TGI (NCI/ADR-RES ovarian): 2.95 µM | GI50 (MDA-MB-468 breast): 1.71 µM | TGI (MDA-MB-468 breast): 3.09 µM | GI50 (M14 melanoma): 1.14 µM | TGI (M14 melanoma): 2.36 µM | GI50 (SK-MEL-5 melanoma): 1.11 µM | TGI (SK-MEL-5 melanoma): 2.31 µM | GI50 (NCI-H322M lung): 1.77 µM | TGI (NCI-H322M lung): 3.17 µM | GI50 (HT29 colon): 1.68 µM | TGI (HT29 colon): 3.08 µM | GI50 (CCRF-CEM leukemia): 1.41 µM | TGI (CCRF-CEM leukemia): 2.72 µM | GI50 (BT-549 breast): 1.55 µM | TGI (BT-549 breast): 2.9 µM | GI50 (K-562 leukemia): 1.29 µM | TGI (K-562 leukemia): 2.58 µM | GI50 (TK-10 renal): 1.58 µM | TGI (TK-10 renal): 2.92 µM | GI50 (RPMI-8226 leukemia): 0.0209 µM | TGI (RPMI-8226 leukemia): 0.191 µM
